# Reference: US20200339544A1 (JOINT STOCK COMPANY "BIOCAD", priority 2017, published 2020)
# Like-named read-outs stand apart in the source and are kept apart here. Marks after values point to notes of the source that are not given here.
# Assays:
# [1] = Chemical stability in simulated intestinal fluid (SIF); assay type: physicochemical; details: SIF without enzymes, pH 6.5; 10 μm; 2 hours at 37° C.; substance amount remaining
# Description: (§1) 1) Determination of chemical stability in simulated intestinal fluid, simulated gastric fluid and human blood plasma.
# (§2) SGF concentrate without enzymes, pH=1,4 (Sigma Ireland, cat #01651) was used as simulated gastric fluid. Initial candidate solution (10 mM in DMSO) was diluted with a SGF working solution to a concentration of 10 μm (test solution). The test solution was incubated in a dry block thermostat for 2 hours at 37° C. SIF concentrate without enzymes, pH=6.5 (Sigma Ireland, cat #55331) was used as simulated intestinal fluid. Initial candidate solution (10 mM in DMSO) was diluted with a SIF working solution to a concentration of 10 μm (test solution). The test solution was incubated in a dry block thermostat for 2 hours at 37° C. HPLC with Agilent 1200 liquid chromatography system (Agilent, USA) was employed to determine peak areas of the compounds in test samples, said peak areas corresponding to the initial test time (prior to incubation) and the final test time (after incubation in a dry block thermostat for 2 hours at 37° C.). We used gradient elution (1 mL/min flow rate). Substance amount in % in a sample after thermostatting was determined.
# (§3) The stability of the compounds was estimated.
# WT EGFR (Wild-Type EGFR) = biological target: T1, WT EGFR (Wild-Type EGFR) (Homo sapiens, UniProt P00533); experiment: Inhibition of WT EGFR kinase activity (ADP-Glo); assay type: biochemical
# T1 construct: purchased SignalChem
# Procedure, shortened: (§4)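 Luminescent ADP-Glo readout was used for both wild-type and L858R/T790M EGFR, each run 180 minutes at 37° C. Reactions used a solution of 50 μM ATP with 0.5 mg/mL peptide substrate. Four-parameter logistic curves gave IC50.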
# [2] = biological target: T2, DM EGFR (DoubleMutantEGFR, L828R/T790M) (Homo sapiens, UniProt P00533, L858R/T790M); experiment: Inhibition of DM EGFR kinase activity (ADP-Glo); assay type: biochemical; details: for IC50: inhibition of kinase activity, EGFR DM (L828R/T790M); for SI, IC50(WT)/IC50(DM): selectivity index, kinase EGFR WT vs EGFR DM
# T2 construct: purchased SignalChem
# Procedure, shortened: as §4
# [3] = system: HCC827 (lung adenocarcinoma, SM, exon19delE746-A750); experiment: Antiproliferative activity on HCC827 cells (Alamar Blue); assay type: cell-based; details: Homo sapiens, antiproliferative test
# Description: Antiproliferative activity of EGFR inhibitors (Tables 15 and 16) was measured in cell-based bioassay on continuous epithelial cell cultures: A549 (lung adenocarcinoma, ATCC® CRM-CCL-185™—WT), HCC827 (lung adenocarcinoma, ATCC® CRL-2868™—SM (SingleMutantEGFR, exon19delE746-A750)) and H1975 (lung adenocarcinoma, ATCC® CRL-5908™—DM (DoubleMutantEGFR, L828R/T790M)) using cell viability reagent Alamar Blue (ThermoFisher, # DAL1100). Cells were cultured in 10% FBS-supplemented (Gibco, #16140071) RPMI-1640 (PanEco, S330p) for at least 1 passage after thawing, washed with PBS and passaged in 96-well culture plates (3599, Corning) with RPMI-1640 growth medium supplemented with 2% FBS in an amount of 5*10^3 cells/well for A549, 10*10^3 cells/well for HCC827 and 15*10^3 cells/well for H1975 in 100 μL, and incubated at 37° C. in an incubator (Thermo Forma, USA) under 5% of CO2 for 16-18 h for cell attachment.
# The test compounds were dissolved in DMSO in the selected range of concentrations and transferred to RPMI-1640 medium (PanEco, S330p) supplemented with 2% FBS. After adding 50 μl of the prepared dilutions to the cells, the incubation mixture contained the final concentrations of the test substances and no more than 1% DMSO. The plates were Incubated at 37° C. for 72 h. After incubation, 15 μl of Alamar Blue vital dye (ThermoFisher, # DAL1100) was added to each well. The plates were shaken on an orbital shaker (Biosan, Latvia) and further incubated for 3-5 h in a CO2 incubator (Thermo Forma, USA). Number of living cells was estimated using a plate spectrophotometer Infinite M200Pro, (Tecan, Switzerland) measuring fluorescent signal at the excitation wavelength (λEx) of 540 nm and emission wavelength (λEm) of 590 nm.
# IC50 was calculated using Magellan 7.2 software (Tecan, Switzerland) approximating experimental points by four-parameter logistic model with the optimization by Levenberg-Marquardt.
# [4] = Chemical stability in simulated gastric fluid (SGF); assay type: physicochemical; details: SGF without enzymes, pH 1,4; 10 μm; 2 hours at 37° C.; substance amount remaining
# Description: as §1, §2, §3
# [5] = system: H1975 (lung adenocarcinoma, DM, L828R/T790M); experiment: Antiproliferative activity on H1975 cells (Alamar Blue); assay type: cell-based; details: for IC50: Homo sapiens, NCI-H1975, H1975 cells; for SI IC50(A549)/IC50(DM): selectivity index, A549 vs H1975 cells
# Procedure, shortened: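 IC50 was fitted with a four-parameter logistic model to Alamar Blue fluorescence (540/590 nm), read 3-5 h after dye addition. Before that, compounds acted on attached H1975 cells, 15*10^3 per well in 2% FBS RPMI-1640, for 72 h at 37 °C, DMSO no more than 1%.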
# [6] = system: A549 (lung adenocarcinoma, WT); experiment: Antiproliferative activity on A549 cells (Alamar Blue); assay type: cell-based; details: Homo sapiens, antiproliferative test
# Procedure, shortened: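 Viability read by Alamar Blue fluorescence (λEx 540, λEm 590 nm) 3-5 h after dye addition, following 72 h compound treatment at 37° C in 2% FBS RPMI-1640, ≤1% DMSO. Seeding 5*10^3 cells/well, 16-18 h attachment. Four-parameter logistic model gave IC50.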
# [7] = General cytotoxicity on HepG2 cells; assay type: cell-based; details: human; general cytotoxicity, HepG2 cells, 72 hours, average of several tests
# Procedure, shortened: (§5)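 HepG2 cells seeded at 2*10^4 cells per well and compounds added in DMEM with 2% FBS for 72 h at 37 °C. Viability read with Alamar Blue and CC50 derived as for IC50. Therapeutic index taken as HepG2 CC50 over H1975 IC50.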
# HepG2 cells = experiment: General cytotoxicity on HepG2 cells; assay type: cell-based; details: therapeutic index, CC50 HepG2 / IC50 H1975
# Procedure, shortened: as §5
# [8] = Chemical stability in human blood plasma; assay type: in vitro ADME; details: pooled human blood plasma; 10 μm; 4 hours at 37° C.; substance amount remaining
# Procedure, shortened: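 Percent of parent remaining was derived by comparing HPLC peak areas at time zero and after 4 h at 37 °C. Test compound was at 10 μM in human plasma pooled from ten donors, and proteins were precipitated with acetonitrile before analysis.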
# [9] = average values obtained in several tests, Table 16, read-out: H1975 (DM) IC50
# [10] = antiproliferative test, Table 15, read-out: IC50 H1975 (DM)
SMILES,"Stability in SIF, % [1] [%]",IC50 (WT EGFR (Wild-Type EGFR)) [nM],IC50 [2] [nM],"SI, IC50(WT)/IC50(DM) [2]",IC50 [3] [nM],"Stability in SGF, % [4] [%]","IC50 [5, 9] [nM]","IC50 [5, 10] [nM]",SI IC50(A549)/IC50(DM) [5],IC50 [6] [nM],CC50 at 72 h [7] [nM],"TI, CC50/IC50 (HepG2 cells)","Stability in blood plasma, % [8] [%]"
"C=CC(=O)Nc1cc(Nc2nccc(C(=O)c3cccc(OC)c3)n2)c(OC)cc1N(C)CCN(C)C [EGFR_3365_32, N-(2-((2-(dimethylamino)ethyl)(methyl)amino)-4-methoxy-5-((4-(3-methoxybenzoyl)pyrimidin-2-yl)amino)phenyl)acrylamide]",99.7,202,5.26,38.41,11.1,98.0,93.4,93.4,376.12,35100,24800,265,67.5
"C=CC(=O)Nc1cc(Nc2nccc(C(=O)c3ccccc3OC)n2)c(OC)cc1N(C)CCN(C)C [EGFR_3365_33, N-(2-((2-(dimethylamino)ethyl)(methyl)amino)-4-methoxy-5-((4-(2-methoxybenzoyl)pyrimidin-2-yl)amino)phenyl)acrylamide]",96.8,75.8,6.79,11.16,5.9,99.5,5.6,5.6,>1786**,> 10000,57600,10285,60.5
C=CC(=O)Nc1cc(Nc2nccc(C(=O)c3cccc([N+](=O)[O-])c3)n2)c(OC)cc1N(C)CCN(C)C [EGFR_3365_34],100.0,514,6.95,74.07,111,99.0,164,164,98.26,16200,10300,62,82.7
